According to patent US20150238460A1, “Methods and Compositions For Treating Hepatocellular Carcinoma” (priority 2012, published 2015):
Where two headings read alike, the source gives them in different places.

Key:
[1] = test system: Sarcoplasmic/Endoplasmic Reticulum Calcium ATPase (SERCA) pump; conditions: cited from earlier work
[2] = test system: advanced, unresectable HCC (various cancers in whole group); assay: Phase I trial G-202-001, expansion group with modified dosing regimen; format: in vivo, human; conditions: fifth HCC patient
From the text: Virtually all anti-cancer agents have the potential to cause infusion reactions, which are reactions that may be allergic or non-allergic in nature and not related to the known toxicity profile of the agent. Infusion reactions are usually thought of as hypersensitivity reactions, despite the absence of an allergic component in many cases.
Endpoints evaluated in the expansion group included safety, tumor response rate, progression-free survival, and overall survival. Additional secondary endpoints included exploration of pharmacodynamic markers associated with various cancers. Assessments were routinely performed during therapy and following therapy if toxicity was the reason therapy was discontinued.
The only FDA-approved therapy for patients with unresectable HCC is sorafenib tosylate, otherwise known as Nexavar® and/or by the chemical name: 4-(4-{3-[4-Chloro-3-(trifluoromethyl)phenyl]ureido}phenoxy)N2methylpyridine-2-carboxamide 4-methylbenzenesulfonate.

[3] = test system: progressive advanced hepatocellular carcinoma (HCC); conditions: two of four patients, no improvement on therapy
[4] = test system: advanced hepatocellular carcinoma; conditions: cited from earlier work
[5] = test system: advanced hepatocellular carcinoma; conditions: Asian-Pacific trial, advanced HCC; cited from earlier work

## C/C=C(/C)C(=O)O[C@H]1C(C)=C2[C@H]([C@@H]1OC(=O)CCCCCCC)[C@@](C)(OC(C)=O)C[C@H](OC(=O)CCC)[C@@]1(O)[C@H]2OC(=O)[C@@]1(C)O [Thapsigargin]
[1]
  affinity of binding to SERCA pump: high affinity

## 8-O-(12-aminododecanoyl)-debutanoyl-thapsigargin aspartate-glutamate-γ-glutamate-γ-glutamate-γ-glutamate OH [G-202]
[2]
  time without disease progression after ceasing treatment: more than four
[3]
  disease progression reached after number of cycles: no more than two

## CNC(=O)c1cc(Oc2ccc(NC(=O)Nc3ccc(Cl)c(C(F)(F)F)c3)cc2)ccn1.Cc1ccc(S(=O)(=O)O)cc1 [sorafenib, 4-(4-{3-[4-Chloro-3-(trifluoromethyl)phenyl]ureido}phenoxy)N2methylpyridine-2-carboxamide 4-methylbenzenesulfonate]
[4]; SHARP Trial, patients with advanced HCC, no prior systemic treatment
  time to radiologic progression: 5.5 months
[4]; SHARP Trial, patients with advanced HCC
  overall survival: 10.7 months
[4]; clinical trial of 602 patients with HCC (Llovet 2008)
  average time to disease progression after beginning sorafenib treatment: approximately six
[5]
  median overall survival: 6.5 months
  time to radiologic progression: 2.8 months
[2]; before G-202
  disease progression on prior sorafenib treatment after: 3 months
